Data on eight molecules can be found in US9872861B2, “Methods of treatment using selective Bcl-2 inhibitors” (AbbVie Inc., priority 2010, dated 2018).

Usually EC50 stands for the concentration needed to bring the measured effect to its halfway point.

The subject of data set [1] is peripheral blood immune cells and platelets. The experiment in a line: Peripheral blood lymphocytes and platelets in (NZB×NZW)F1 mice, Cell Dyn hematology analyzer. The format is in vivo.
A further data set relates to H146 cells. The experiment in a line: Cellular efficacy in Bcl-XL dependent tumor cell line H146. The format is cell-based. Particulars: Homo sapiens, NCI-H146; 10% HS.
The next data set has as its system RS4;11 cells. The experiment in a line: Cellular efficacy in Bcl-2 dependent tumor cell line RS4;11. The format is cell-based, human. Particulars: Homo sapiens, RS4-11; 10% HS.
For the next data set, the system named is FL5.12-Bcl-XL cells. The experiment in a line: Cellular efficacy in FL5.12 cells dependent on Bcl-XL. The format is cell-based, murine. The settings on record: Mus musculus, 3% FBS.
The test system of the next data set is FL5.12-Bcl-2 cells. The experiment in a line: Cellular efficacy in FL5.12 cells dependent on Bcl-2. Particulars: Mus musculus, 3% FBS. The format is cell-based, murine.
The next data set concerns the target T1, Bcl-w (Homo sapiens, UniProt Q92843).
T1 sequence (Q92843 1-193): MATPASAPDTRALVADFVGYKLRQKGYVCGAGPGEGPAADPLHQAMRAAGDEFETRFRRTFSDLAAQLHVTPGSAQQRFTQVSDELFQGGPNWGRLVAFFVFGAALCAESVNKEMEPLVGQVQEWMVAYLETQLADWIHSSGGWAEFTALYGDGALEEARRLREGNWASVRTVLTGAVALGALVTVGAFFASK
Description: TR FRET competitive binding affinity, Bcl-w. Particulars: read-out: Target Affinity TR FRET, Bcl-w. The protocol:
(§1) A comparison of the binding affinity for each of the compounds was performed to determine target affinity, as measured by Time-Resolved Fluorescence Resonance Energy Transfer (TR FRET).
On the technique in general: Time-resolved FRET reads energy transfer from a long-lived donor to a nearby acceptor.

Data set [2] has as its system peripheral blood immune cells. Description: Peripheral blood lymphocytes in C57BL/6 mice, Cell Dyn hematology analyzer. The format is in vivo. Particulars: for inhibition in vivo at 100 mg/kg: Mus musculus, Lymphocyte. The protocol:
The effect of the Bcl-2 selective/Bcl-XL sparing compounds on peripheral blood immune cells was also evaluated in C57BL/6 mice. Mice were treated four days with individual compounds (100 mg/kg, orally every day) and cell numbers were measured with a Cell Dyn hematology analyzer.

The next data set addresses Bcl-XL (Homo sapiens, UniProt Q07817). Description: TR FRET competitive binding affinity, Bcl-XL. Particulars: read-out: Target Affinity TR FRET, Bcl-XL. The protocol: as §1
The target in the next data set is Bcl-2 (Homo sapiens, UniProt P10415). Description: TR FRET competitive binding affinity, Bcl-2. The settings on record: read-out: Target Affinity TR FRET, Bcl-2. The protocol:
as §1

The next data set addresses Mcl-1 (Homo sapiens, UniProt Q07820). The experiment in a line: TR FRET competitive binding affinity, Mcl-1. Particulars: read-out: Target Affinity TR FRET, Mcl-1. The protocol:
as §1

Setting [3] is: (NZB×NZW)F1 mice, four days, orally every day.
Setting [4] is: 24 h, 1 oral dose of 100 mg/kg, read-out: Day 1 % Reduction vs. Vehicle.
[5] abbreviates: 96 h, 4 oral doses of 100 mg/kg, read-out: Day 4 % Reduction vs. Vehicle.
The mark [6] stands for this setting: 30 and 100 mg/kg intraperitoneal every day, four days.

The structures appear in SMILES notation. Like-named read-outs stand apart in the source and are kept apart here. Some results are limits rather than exact numbers.

Bcl-XL, sequence (Q07817 whole entry): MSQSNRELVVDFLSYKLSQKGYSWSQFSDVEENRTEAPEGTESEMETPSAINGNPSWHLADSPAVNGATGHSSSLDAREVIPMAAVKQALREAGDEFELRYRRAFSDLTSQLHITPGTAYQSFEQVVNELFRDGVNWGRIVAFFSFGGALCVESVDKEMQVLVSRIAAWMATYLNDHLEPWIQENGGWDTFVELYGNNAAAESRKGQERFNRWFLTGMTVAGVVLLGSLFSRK
Mcl-1, sequence (Q07820 whole entry): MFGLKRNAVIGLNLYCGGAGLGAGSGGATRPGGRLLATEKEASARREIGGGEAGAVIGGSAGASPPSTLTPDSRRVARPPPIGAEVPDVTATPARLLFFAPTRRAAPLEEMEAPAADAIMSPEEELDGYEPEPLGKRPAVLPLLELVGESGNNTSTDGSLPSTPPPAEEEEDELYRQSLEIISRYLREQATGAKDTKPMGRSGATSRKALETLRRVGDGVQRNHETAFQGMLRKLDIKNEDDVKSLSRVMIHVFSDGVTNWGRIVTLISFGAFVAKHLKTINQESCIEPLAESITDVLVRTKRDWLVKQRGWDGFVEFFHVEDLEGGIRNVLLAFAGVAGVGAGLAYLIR
Bcl-2, sequence (P10415 whole entry): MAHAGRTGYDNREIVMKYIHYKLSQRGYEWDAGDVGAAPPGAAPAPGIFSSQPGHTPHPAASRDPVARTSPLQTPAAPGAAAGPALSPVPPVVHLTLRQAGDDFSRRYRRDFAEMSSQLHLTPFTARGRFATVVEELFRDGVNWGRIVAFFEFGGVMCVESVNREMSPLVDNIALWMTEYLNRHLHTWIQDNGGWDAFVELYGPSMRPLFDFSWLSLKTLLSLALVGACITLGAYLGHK

Take `CC1(C)CCC(c2ccc(Cl)cc2)=C(CN2CCN(c3ccc(C(=O)NS(=O)(=O)c4ccc(N[C@H](CCN5CCOCC5)CSc5ccccc5)c(S(=O)(=O)C(F)(F)F)c4)cc3)CC2)C1` [Compound 2, N-(4-(4-((2-(4-chlorophenyl)-5,5-dimethyl-1-cyclohex-1-en-1-yl)methyl)piperazin-1-yl)benzoyl)-4-(((1R)-3-(morpholin-4-yl)-1-((phenylsulfanyl)methyl)propyl)amino)-3-((trifluoromethyl)sulfonyl)benzenesulfonamide, reference compound]: the “lymphocytes in peripheral blood” value in data set [1] (setting [3]) is recorded as “decrease in lymphocytes”. The platelet counts entry in [1] (setting [3]) is “significant decrease in platelet counts”. The EC50 in the data set on H146 cells was determined as 0.075 µM; with RS4;11 cells, 110 nM; in the data set on FL5.12-Bcl-XL cells it was 13 nM; in the data set with FL5.12-Bcl-2 cells it was 20 nM. Further, the Ki at Bcl-w was 7 nM.
For `CC1(C)CCC(CN2CCN(c3ccc(C(=O)NS(=O)(=O)c4ccc(NCC5CCOCC5)c([N+](=O)[O-])c4)c(Oc4ccc5[nH]ccc5c4)c3)CC2)=C(c2ccc(Cl)cc2)C1` [Compound 3, 4-(4-{[2-(4-chlorophenyl)-4,4-dimethylcyclohex-1-en-1-yl]methyl}piperazin-1-yl)-2-(1H-indol-5-yloxy)-N-({3-nitro-4-[(tetrahydro-2H-pyran-4-ylmethyl)amino]phenyl}sulfonyl)benzamide], in [2] (1 oral dose of 100 mg/kg), the “Day 1 Lymphocytes” value is given as 2.3 ×10^6. Besides, the “Day 4 lymphocytes” value in data set [2] (4 oral doses of 100 mg/kg) is 1.34 ×10^6. The figures for the inhibition in vivo at 100 mg/kg in [2] (setting [4]) and in data set [2] (setting [5]) were 63% and 79%, respectively. Also, the lymphocyte reduction in data set [1] (30 mg/kg intraperitoneal every day, four days) stood at 47%; in data set [1] (100 mg/kg intraperitoneal every day, four days) it was 66%. Further, in data set [1] (100 mg/kg and 300 mg/kg), the “CD4+ T cells, CD8+ T cells and CD19+ B cells” value is recorded as “statistically significant decrease”. Also, the “lymphocytes vs phosal vehicle control” value in data set [1] (setting [6]) was “dose dependent decrease in lymphocytes”. Besides, the platelet counts entry in data set [1] (setting [6]) is listed as “without significantly affecting platelet counts”. The EC50 in the data set on H146 cells was > 5 µM; with RS4;11 cells it was 41 nM; in the data set on FL5.12-Bcl-XL cells, 1060 nM; in the data set on FL5.12-Bcl-2 cells, 12 nM. The Ki turned out to be 151 nM on Bcl-XL, 0.119 nM on Bcl-2 and 111 nM at Mcl-1.
With `CO[C@H]1CC[C@H](CNc2ccc(S(=O)(=O)NC(=O)c3ccc(N4CCN(CC5=C(c6ccc(Cl)cc6)CC(C)(C)CC5)CC4)cc3Oc3cnc4[nH]ccc4c3)cc2[N+](=O)[O-])CC1` [Compound 5, Trans-4-(4-{[2-(4-chlorophenyl)-4,4-dimethylcyclohex-1-en-1-yl]methyl}piperazin-1-yl)-N-[(4-{[(4-methoxycyclohexyl)methyl]amino}-3-nitrophenyl)sulfonyl]-2-(1H-pyrrolo[2,3-b]pyridin-5-yloxy)benzamide], the “Day 1 Lymphocytes” value in [2] (1 oral dose of 100 mg/kg) is 0.98 ×10^6. In data set [2] (4 oral doses of 100 mg/kg), the “Day 4 lymphocytes” value is reported as 1.02 ×10^6. Further, the inhibition in vivo at 100 mg/kg in data set [2] (setting [4]) and in data set [2] (setting [5]) was 84% in each case. The EC50 was > 5 µM in the data set with H146 cells, 8 nM with RS4;11 cells, 67 nM in the data set with FL5.12-Bcl-XL cells and 1.2 nM with FL5.12-Bcl-2 cells. In addition, the Ki was 126 nM on Bcl-XL and < 0.01 nM on Bcl-2.
`CC1(C)CCC(CN2CCN(c3ccc(C(=O)NS(=O)(=O)c4cnc(OC[C@H]5CC[C@H](O)CC5)c(Cl)c4)c(Oc4cccc5[nH]ncc45)c3)CC2)=C(c2ccc(Cl)cc2)C1` [Compound 6, Trans-N-({5-chloro-6-[(4-hydroxycyclohexyl)methoxy]pyridin-3-yl}sulfonyl)-4-(4-{[2-(4-chlorophenyl)-4,4-dimethylcyclohex-1-en-1-yl]methyl}piperazin-1-yl)-2-(1H-indazol-4-yloxy)benzamide]: the “Day 1 Lymphocytes” value in data set [2] (1 oral dose of 100 mg/kg) is recorded as 1.91 ×10^6. Besides, the “Day 4 lymphocytes” value in data set [2] (4 oral doses of 100 mg/kg) is 0.98 ×10^6. For the same molecule, the inhibition in vivo at 100 mg/kg is 69% in data set [2] (setting [4]) and 85% in data set [2] (setting [5]). Besides, the EC50 with H146 cells was 3.66 µM; in the data set with RS4;11 cells, 23 nM. Besides, the figures for the Ki at Bcl-XL, at Bcl-2 and at Mcl-1 were 27 nM, < 0.01 nM and > 224 nM, respectively.
As for `CC1(C)CCC(CN2CCN(c3ccc(C(=O)NS(=O)(=O)c4ccc(NC[C@H]5CC[C@@](C)(O)CC5)c([N+](=O)[O-])c4)c(Oc4cnc5[nH]ccc5c4)c3)CC2)=C(c2ccc(Cl)cc2)C1` [Compound 8, 4-(4-{[2-(4-chlorophenyl)-4,4-dimethylcyclohex-1-en-1-yl]methyl}piperazin-1-yl)-N-[(4-{[(cis-4-hydroxy-4-methylcyclohexyl)methyl]amino}-3-nitrophenyl)sulfonyl]-2-(1H-pyrrolo[2,3-b]pyridin-5-yloxy)benzamide], in [2] (1 oral dose of 100 mg/kg), the “Day 1 Lymphocytes” value was 0.92 ×10^6. In addition, in data set [2] (4 oral doses of 100 mg/kg), the “Day 4 lymphocytes” value is on record as 1.02 ×10^6. For the same molecule, the figures for the inhibition in vivo at 100 mg/kg in [2] (setting [4]) and in data set [2] (setting [5]) were 85% and 84%, respectively. In addition, the results for the EC50 in the data set with H146 cells and in the data set with RS4;11 cells were 3.34 µM and 4 nM, respectively. Besides, the Ki at Bcl-XL was 16 nM; on Mcl-1, > 440 nM; at Bcl-w, 405 nM.
Turning to `CC1(C)CCC(CN2CCN(c3ccc(C(=O)NS(=O)(=O)c4ccc(NC[C@H]5CC[C@](C)(O)CC5)c([N+](=O)[O-])c4)c(Oc4cnc5[nH]ccc5c4)c3)CC2)=C(c2ccc(Cl)cc2)C1` [Compound 9, 4-(4-{[2-(4-chlorophenyl)-4,4-dimethylcyclohex-1-en-1-yl]methyl}piperazin-1-yl)-N-[(4-{[(trans-4-hydroxy-4-methylcyclohexyl)methyl]amino}-3-nitrophenyl)sulfonyl]-2-(1H-pyrrolo[2,3-b]pyridin-5-yloxy)benzamide], the “Day 1 Lymphocytes” value in data set [2] (1 oral dose of 100 mg/kg) is recorded as 0.75 ×10^6. Further, the “Day 4 lymphocytes” value in [2] (4 oral doses of 100 mg/kg) was 0.88 ×10^6. For the same molecule, the inhibition in vivo at 100 mg/kg amounted to 88% in data set [2] (setting [4]) and 86% in [2] (setting [5]). The figures for the EC50 with H146 cells and with RS4;11 cells were 3.76 µM and 2.5 nM, respectively. For the same molecule, the results for the Ki on Bcl-XL, on Mcl-1 and at Bcl-w were 16 nM, > 440 nM and 227 nM, respectively.
On to `CC1(C)CCC(CN2CCN(c3ccc(C(=O)NS(=O)(=O)c4cnc(OCC5(F)CCOCC5)c(Cl)c4)c(Oc4cccc5[nH]ncc45)c3)CC2)=C(c2ccc(Cl)cc2)C1` [Compound 12, N-({5-chloro-6-[(4-fluorotetrahydro-2H-pyran-4-yl)methoxy]pyridin-3-yl}sulfonyl)-4-(4-{[2-(4-chlorophenyl)-4,4-dimethylcyclohex-1-en-1-yl]methyl}piperazin-1-yl)-2-(1H-indazol-4-yloxy)benzamide], for which the “Day 1 Lymphocytes” value in [2] (1 oral dose of 100 mg/kg) is on record as 1.44 ×10^6. Besides, the “Day 4 lymphocytes” value in [2] (4 oral doses of 100 mg/kg) is reported as 2.21 ×10^6. Also, the inhibition in vivo at 100 mg/kg in [2] (setting [4]) worked out at 78%; in data set [2] (setting [5]), 74%. In addition, the EC50 with H146 cells was found to be 2.75 µM; in the data set with RS4;11 cells, 17 nM; in the data set on FL5.12-Bcl-XL cells it was 59 nM; in the data set on FL5.12-Bcl-2 cells it was 2.3 nM. Besides, the Ki on Bcl-XL is 23 nM; at Bcl-2, < 0.01 nM.
On to `CC1(C)CCC(CN2CCN(c3ccc(C(=O)NS(=O)(=O)c4cnc(OCC5(F)CCN(C6COC6)CC5)c(Cl)c4)c(Oc4cnc5[nH]ccc5c4)c3)CC2)=C(c2ccc(Cl)cc2)C1` [Compound 13, N-[(5-chloro-6-{[4-fluoro-1-(oxetan-3-yl)piperidin-4-yl]methoxy}pyridin-3-yl)sulfonyl]-4-(4-{[2-(4-chlorophenyl)-4,4-dimethylcyclohex-1-en-1-yl]methyl}piperazin-1-yl)-2-(1H-pyrrolo[2,3-b]pyridin-5-yloxy)benzamide], for which, in [2] (1 oral dose of 100 mg/kg), the “Day 1 Lymphocytes” value is listed as 2.32 ×10^6. Further, the “Day 4 lymphocytes” value in data set [2] (4 oral doses of 100 mg/kg) is recorded as 2.61 ×10^6. Moreover, the inhibition in vivo at 100 mg/kg in [2] (setting [4]) amounted to 64%; in data set [2] (setting [5]) it was 70%. Besides, the EC50 with H146 cells was 3.16 µM; in the data set with RS4;11 cells, 7 nM. Further, the Ki at Bcl-XL is 9 nM; at Mcl-1, > 440 nM; at Bcl-w, 167 nM.
